Results on 16 molecules are retold here after patent US12570655B2, “Cysteine covalent modifiers of AKT1 and uses thereof” (Terremoto Biosciences, Inc., priority 2023, dated 2026).

pIC50: −log10 of the molar value. Read-outs that look alike come from different tables or passages of the source.

Holding throughout (assay type): cell-based
One experiment has as its target T1, AKT1 WT (Homo sapiens, UniProt P31749).
T1 construct: expressed in transfected cells; host or cells: HEK293
Description: Live cell AKT1 WT target engagement by NanoBRET competitive probe displacement. The following applies: HEK293 cells transfected with kinase-NanoLuciferase fusion, 2 h at 37° C. On the procedure: (§1) Determining Live Cell AKT1 E17K, AKT1 WT, and AKT2 Target Engagement by NanoBRET Competitive Probe Displacement.
(§2) Live cell target engagement assays were performed as described (Vasta, J. D. et al. Cell Chem Biol 2018, 25(11), 206-214). Briefly, HEK293 cells were transfected with plasmids encoding kinase-NanoLuciferase fusion proteins overnight. Cells were then treated with serial dilutions of compound and an ˜EC50 concentration of fluorescently-tagged ATP-competitive tracer (Promega). After incubation for 2 h at 37° C., luciferase substrate and extracellular luciferase inhibitor were added to all wells, and luminescent intensity at 460 nm and 600 nm were measured on a multimode plate-reader. The ratio of E600/E460 was calculated to give the tracer engagement signal (BRET). IC50 values were calculated by fitting BRET values to a log(inhibitor) vs. response Hill equation.
(BRET reads energy transfer from a luciferase to a nearby fluorophore.)

The next experiment concerns the target T2, AKT1 E17K (Homo sapiens, UniProt P31749, E17K).
T2 construct: expressed in transfected cells; host or cells: HEK293
Description: Live cell AKT1 E17K target engagement by NanoBRET competitive probe displacement. To be noted: HEK293 cells transfected with kinase-NanoLuciferase fusion, 2 h at 37° C. On the procedure: as §1, §2

The test system of experiment [1] is LAPC4 prostate cancer cells. Description: Antiproliferative effects in LAPC4 cells (CellTiter Glo). To be noted: LAPC4 cells (AKT1 E17K allele), read-out: LAPC4 proliferation IC50. The protocol:
Antiproliferative Effects in LAPC4 Cells.
LAPC4 prostate cancer cells (Klein, K. A. et al. Nat Med 1997, 3, 402-408), which express the AKT1 E17K allele, were grown in IMDM media (Hyclone) supplemented with 12% FBS+1% P/S. To assess compound effects on growth, 1,000 cells/well were seeded in 384 well assay plates, incubated with compound dilutions dissolved in DMSO. After 72 h, intracellular ATP content was assessed with CellTiter Glo reagent (Promega) according to the manufacturer's instructions. IC50 values were calculated by fitting luminescence values to a log(inhibitor) vs. response Hill equation.
In general terms: Cellular ATP, detected with luciferase, serves as a proxy for viable cell number.

T1 sequence (P31749 whole entry): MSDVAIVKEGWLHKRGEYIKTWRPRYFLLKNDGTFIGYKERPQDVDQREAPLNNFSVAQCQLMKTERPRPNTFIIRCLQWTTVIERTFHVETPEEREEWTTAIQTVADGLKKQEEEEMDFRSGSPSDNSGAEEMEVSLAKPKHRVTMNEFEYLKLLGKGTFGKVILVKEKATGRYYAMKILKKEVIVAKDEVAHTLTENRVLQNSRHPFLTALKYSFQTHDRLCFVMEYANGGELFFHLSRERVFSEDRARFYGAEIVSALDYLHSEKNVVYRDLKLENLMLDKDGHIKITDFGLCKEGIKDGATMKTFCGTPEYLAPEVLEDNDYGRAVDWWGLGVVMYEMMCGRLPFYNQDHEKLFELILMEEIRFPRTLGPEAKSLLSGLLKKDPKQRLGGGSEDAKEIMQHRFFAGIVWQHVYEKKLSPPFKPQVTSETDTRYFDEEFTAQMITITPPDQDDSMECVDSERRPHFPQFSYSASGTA
T2 sequence (P31749 whole entry E17K): as the sequence (P31749 whole entry) above, with E17K counted along it

As for `C=CC(=O)N1CCC(N[C@H]2CCc3cc(-n4c(-c5cccnc5N)nc5ccc(-n6cccn6)nc54)ccc32)C[C@@H]1C(F)F` (single isomer, unassigned) [Example 212, 1-((2R,4*)-4-(((S)-5-(2-(2-aminopyridin-3-yl)-5-(1H-pyrazol-1-yl)-3H-imidazo[4,5-b]pyridin-3-yl)-2,3-dihydro-1H-inden-1-yl)amino)-2-(difluoromethyl)piperidin-1-yl)prop-2-en-1-one], the results for the pIC50 (at AKT1 WT; on AKT1 E17K; in experiment [1] (72 h)) were 7.44, 8.16 and 7.44, respectively.
In the case of `C=CC(=O)N1CCc2cccc(C(=O)N[C@H]3CCc4cc(-n5c(-c6cccnc6N)nc6ccc(-n7cccn7)nc65)ccc43)c2C1` [Example 235, (S)-2-acryloyl-N-(5-(2-(2-aminopyridin-3-yl)-5-(1H-pyrazol-1-yl)-3H-imidazo[4,5-b]pyridin-3-yl)-2,3-dihydro-1H-inden-1-yl)-1,2,3,4-tetrahydroisoquinoline-8-carboxamide], the pIC50 on AKT1 WT was 7.29; on AKT1 E17K, 7.90; in experiment [1] (Homo sapiens, LAPC4, 72 h) it was 7.18.
`C=CC(=O)N1C[C@H]2CCC[C@@H](C1)C2N[C@H]1CCc2cc(-n3c(-c4cccnc4N)nc4ccc(-n5cccn5)nc43)ccc21` (single isomer, unassigned) [Example 188, 1-((1R,5S,9*)-9-(((S)-5-(2-(2-aminopyridin-3-yl)-5-(1H-pyrazol-1-yl)-3H-imidazo[4,5-b]pyridin-3-yl)-2,3-dihydro-1H-inden-1-yl)amino)-3-azabicyclo[3.3.1]nonan-3-yl)prop-2-en-1-one]: the values for the pIC50 (on AKT1 WT; at AKT1 E17K; in experiment [1] (72 h)) were 7.46, 8.25 and 7.25, respectively.
`C=CC(=O)N1CCC(N[C@@H]2c3ccc(-n4c(-c5cccnc5N)nc5ccc(-n6cccn6)nc54)cc3CC2F)CC1C(F)F` (single isomer, unassigned) [Example 303, 1-((2*,4*)-4-(((1R,2*)-5-(2-(2-aminopyridin-3-yl)-5-(1H-pyrazol-1-yl)-3H-imidazo[4,5-b]pyridin-3-yl)-2-fluoro-2,3-dihydro-1H-inden-1-yl)amino)-2-(difluoromethyl)piperidin-1-yl)prop-2-en-1-one]: the figures for the pIC50 (on AKT1 WT; on AKT1 E17K; in experiment [1] (72 h)) were 7.66, 7.96 and 7.82, respectively.
Turning to `C=CC(=O)N1CCC(N[C@H]2CCc3cc(-n4c(-c5cccnc5N)nc5ccc(-n6cccn6)nc54)ccc32)C[C@H]1C(F)F` (single isomer, unassigned) [Example 214, 1-((2S,4*)-4-(((S)-5-(2-(2-aminopyridin-3-yl)-5-(1H-pyrazol-1-yl)-3H-imidazo[4,5-b]pyridin-3-yl)-2,3-dihydro-1H-inden-1-yl)amino)-2-(difluoromethyl)piperidin-1-yl)prop-2-en-1-one], the pIC50 at AKT1 WT is 7.44; on AKT1 E17K, 8.33; in experiment [1] (Homo sapiens, LAPC4, 72 h) it was 7.57.
On the same counts, the results for `C=CC(=O)N1CCC(N[C@@H]2CCc3cc(-n4c(-c5cccnc5N)nc5ccc(-n6cccn6)nc54)ccc3C2)CC1` [Example 295, 1-(4-{[(2R)-6-[2-(2-aminopyridin-3-yl)-5-(pyrazol-1-yl)imidazo[4,5-b]pyridin-3-yl]-1,2,3,4-tetrahydronaphthalen-2-yl]amino}piperidin-1-yl)prop-2-en-1-one] are 7.63, 8.03 and 7.75.
On the same counts, the results for `C=CC(=O)N1CCN(CC2CCc3cc(-n4c(-c5cccnc5N)nc5ccc(-n6cccn6)nc54)ccc32)CC1` (stereo not drawn) [Example 174, 1-(4-((5-(2-(2-aminopyridin-3-yl)-5-(1H-pyrazol-1-yl)-3H-imidazo[4,5-b]pyridin-3-yl)-2,3-dihydro-1H-inden-1-yl)methyl)piperazin-1-yl)prop-2-en-1-one] are 7.18, 8.07 and 7.05.
Turning to `C=CC(=O)NC1CCN(C2CCc3cc(-n4c(-c5cccnc5N)nc5ccc(-n6cccn6)nc54)ccc32)CC1` (single isomer, unassigned) [Example 193, N-{1-[(1*)-5-[2-(2-aminopyridin-3-yl)-5-(pyrazol-1-yl)imidazo[4,5-b]pyridin-3-yl]-2,3-dihydro-1H-inden-1-yl]piperidin-4-yl}prop-2-enamide], the pIC50 on AKT1 WT was 7.15; on AKT1 E17K, 7.99; in experiment [1] (Homo sapiens, LAPC4, 72 h), 7.23.
With `C=CC(=O)N1CCC(N[C@H]2CCc3cc(-n4c(-c5cccnc5N)nc5cc(-c6ccccn6)cnc54)ccc32)CC1` [Example 269, 1-(4-{[(1S)-5-[2-(2-aminopyridin-3-yl)-6-(pyridin-2-yl)imidazo[4,5-b]pyridin-3-yl]-2,3-dihydro-1H-inden-1-yl]amino}piperidin-1-yl)prop-2-en-1-one], the pIC50 on AKT1 WT is 5.67; on AKT1 E17K it was 6.61; in experiment [1] (Homo sapiens, LAPC4, 72 h), 5.27.
On the same counts, the results for `C=CC(=O)N1CCC(N[C@@H]2c3ccc(-n4c(-c5ccccc5F)nc5ccc(-n6cccn6)nc54)cc3CC2F)CC1` (single isomer, unassigned) [Example 299, 1-(4-(((1R,2*)-2-fluoro-5-(2-(2-fluorophenyl)-5-(1H-pyrazol-1-yl)-3H-imidazo[4,5-b]pyridin-3-yl)-2,3-dihydro-1H-inden-1-yl)amino)piperidin-1-yl)prop-2-en-1-one] are 5.93, 8.03 and 6.22.
Regarding `C=CC(=O)N1C[C@@H]2[C@H](C1)[C@H]2NC1CCc2cc(-n3c(-c4cccnc4N)nc4ccc(-n5cccn5)nc43)ccc21` (single isomer, unassigned) [Example 347, 1-((1R,5S,6s)-6-(((*)-5-(2-(2-aminopyridin-3-yl)-5-(1H-pyrazol-1-yl)-3H-imidazo[4,5-b]pyridin-3-yl)-2,3-dihydro-1H-inden-1-yl)amino)-3-azabicyclo[3.1.0]hexan-3-yl)prop-2-en-1-one], the figures for the pIC50 at AKT1 WT and at AKT1 E17K were 5.66 and 6.63, respectively.
On the same counts, the results for `C=CC(=O)N1CCC(NC2c3ccc(-n4c(-c5cccnc5N)nc5ccc(-n6ccc(C7CC7)n6)nc54)cc3CC2F)CC1C(F)F` (single isomer, unassigned) [Example 333, 1-((2*,4*)-4-(((1*,2*)-5-(2-(2-aminopyridin-3-yl)-5-(3-cyclopropyl-H-pyrazol-1-yl)-3H-imidazo[4,5-b]pyridin-3-yl)-2-fluoro-2,3-dihydro-1H-inden-1-yl)amino)-2-(difluoromethyl)piperidin-1-yl)prop-2-en-1-one] are 7.55 and 8.36.
On the same counts, the results for `C=CC(=O)N1CCC(N[C@H]2CCc3cc(-n4c(-c5cccnc5N)nc5ccc(-n6cccn6)nc54)ccc32)CC1CC#N` (single isomer, unassigned) [Example 338, 2-((2*,4*)-1-acryloyl-4-(((S)-5-(2-(2-aminopyridin-3-yl)-5-(1H-pyrazol-1-yl)-3H-imidazo[4,5-b]pyridin-3-yl)-2,3-dihydro-1H-inden-1-yl)amino)piperidin-2-yl)acetonitrile] are 6.97 and 7.91.
On the same counts, the results for `C=CC(=O)N1C[C@@H]2[C@H](C1)[C@H]2NC1CCc2cc(-n3c(-c4cccnc4N)nc4ccc(-n5cccn5)nc43)ccc21` (single isomer, unassigned) [Example 346, 1-((1R,5S,6s)-6-(((*)-5-(2-(2-aminopyridin-3-yl)-5-(1H-pyrazol-1-yl)-3H-imidazo[4,5-b]pyridin-3-yl)-2,3-dihydro-1H-inden-1-yl)amino)-3-azabicyclo[3.1.0]hexan-3-yl)prop-2-en-1-one] are 5.56 and 6.35.
`C=CC(=O)N1CCCC(c2cn([C@H]3CCc4cc(-n5c(-c6cccnc6N)nc6ccc(-n7cccn7)nc65)ccc43)nn2)C1` (single isomer, unassigned) [Example 167, 1-((*)-3-(1-((S)-5-(2-(2-aminopyridin-3-yl)-5-(1H-pyrazol-1-yl)-3H-imidazo[4,5-b]pyridin-3-yl)-2,3-dihydro-1H-inden-1-yl)-1H-1,2,3-triazol-4-yl)piperidin-1-yl)prop-2-en-1-one]: the pIC50 at AKT1 E17K was 7.43; in experiment [1] (Homo sapiens, LAPC4, 72 h) it was 6.32.
In the case of `C=CC(=O)N1CCC(N[C@@H]2c3ccc(-n4c(-c5cccnc5N)nc5ccc(-n6cccn6)nc54)cc3CC2C)CC1` (single isomer, unassigned) [Example 182, 1-(4-(((1S,2*)-5-(2-(2-aminopyridin-3-yl)-5-(1H-pyrazol-1-yl)-3H-imidazo[4,5-b]pyridin-3-yl)-2-methyl-2,3-dihydro-1H-inden-1-yl)amino)piperidin-1-yl)prop-2-en-1-one], the pIC50 at AKT1 E17K was 6.82; in experiment [1] (72 h), 5.50.
